According to patent publication US7037939B2, “Compound and derivative of gabapentin” (Industrial Technology Research Institue, priority 2002, dated 2006):
Structures can show the parent of a compound that is named as a salt.

Test system: Caco-2 cell
Assay: Caco-2 monolayer cell transmission rate (in vitro intestinal absorption model)
Type: in vitro ADME, human
Excerpt: The common use of the activity selection model for the in vitro intestinal absorption comprises: (1) Carcinoms (Caco-2); (2) Using Chamber; (3) Everted Gut Sac. Basically, there is no difference for those three drug-activity-selection models when they are used for evaluating the activity selection. However, in terms of the cell source from human, a cell line is predominant. Moreover, with the cellular metabolism being similar to human intestines, Caco-2 becomes an excellent tool in the study of intestine absorption. Therefore, in the comparison of the in vitro transmission rate between gabapentin and gabapentin derivatives, the Caco-2 system is still the favorable model.
The research for studying gabapentin and the derivatives thereof in the present invention includes: Caco-2 cell activation, Caco-2 monolayer cell cultivation, resistance value measurement, effect of time to gabapentin transmission rate, and comparison of transmission rate between gabapentin and gabapentin derivatives. In constructing the Caco-2 monolayer, the original cell line is the human colon adenocarcinoma cell (Caco-2), and its data sheet is listed as Table 2.
The Caco-2 cell is activated appropriately, and seeded in the transwell at 37° C. in an amount of about 1×10^5. The aliquot is cultivated in 5% CO2 at 37° C. and replaced with a fresh medium every 3 to 4 days, and then the monolayer cell is obtained by the 21 days cultivation. The integrity of the Caco-2 cell is further characterized by tissue section and resistance value measurement.
HPLC Analysis: Intersil ODS-3V 250*4.6 mm column, Solvent: MeOH/H2O=10:90 to 70:30 with 0.1% of NH4OAc, Flow rate=1.0 ml/min, ELSD: Evaporative Light Scattering Detector. Every derivative has been repeated for 3 times in analysis, 4 hr later, the sample is analyzed for the transmission rate and then averaged to account its transmission fold.

[1] = Caco-2 monolayer, 4 h, mean of 3 repeats, HPLC-ELSD
[2] = ratio of Caco-2 transmission rate to GBP.HCl, 4 h

CCOC(=O)CC1(CNC(=O)C(N)C(C)C)CCCCC1 (stereo not shown) [Embodiment 29, {1-[(2-Amino-3-methyl-butyrylamino)-methyl]-cyclohexyl}-acetic acid ethyl ester]
Caco-2 Cell Mean Total Transmission rate 4 h (%) (human, Caco-2, 4 h): 8.73% | gbp-prodrug/gbp Transmission Fold (human, Caco-2, 4 h): 7.9 Fold

CCOC(=O)C(Cc1ccccc1)NC(=O)C(C)NC(=O)CC1(CN)CCCCC1 (stereo not shown) [Embodiment 12, 2-{2-[2-(1-Aminonethyl-cyclohexyl)-acetylamino]-propionylamino}-3-phenyl-propionic acid ethyl ester]
Caco-2 Cell Mean Total Transmission rate 4 h (%) [1]: 2.83% | gbp-prodrug/gbp Transmission Fold [2]: 2.6 Fold

CCOC(=O)CC1(CNC(=O)CCNC(=O)c2cccnc2)CCCCC1 [Embodiment 36, [1-({3-[(Pyridine-3-carbonyl)-amino]-propionylamino}-methyl)-cyclohexyl]-acetic acid ethyl ester]
Caco-2 Cell Mean Total Transmission rate 4 h (%) [1]: 9.00% | gbp-prodrug/gbp Transmission Fold [2]: 8.2 Fold

NCC1(CC(=O)O)CCCCC1 [Control 1, Gabapentin HCl, reference compound]
Caco-2 Cell Mean Total Transmission rate 4 h (%) [1]: 1.1% | gbp-prodrug/gbp Transmission Fold [2]: 1 Fold

CCOC(=O)CC1(CNC(=O)C(CC(C)C)NC(=O)CC2(CN)CCCCC2)CCCCC1 (stereo not shown) [Embodiment 20, [1-({2-[2-(1-Aminomethyl-cyclohexyl)-acetylamino]-4-methyl-pentanoylamino}-methyl)-cyclohexyl]-acetic acid ethyl ester]
Caco-2 Cell Mean Total Transmission rate 4 h (%) [1]: 12.22% | gbp-prodrug/gbp Transmission Fold [2]: 11.1 Fold

CC(C)(C)OC(=O)NC(CO)C(=O)NCC1(CC(=O)O)CCCCC1 (stereo not shown) [Embodiment 10, {1-[(2-tert-Butoxycarbonylamino-3-hydroxy-propionylamino)-methyl]-cyclohexyl}-acetic acid]
Caco-2 Cell Mean Total Transmission rate 4 h (%) (human, Caco-2, 4 h): 20.7% | gbp-prodrug/gbp Transmission Fold (human, Caco-2, 4 h): 18.8 Fold

CCOC(=O)CC1(CNC(=O)C(N)CO)CCCCC1 (stereo not shown) [Embodiment 14, {1-[(2-Amino-3-hydroxy-propionylamino)-methyl]-cyclohexyl}-acetic acid ethyl ester]
Caco-2 Cell Mean Total Transmission rate 4 h (%) (human, Caco-2, 4 h): 10.95% | gbp-prodrug/gbp Transmission Fold (human, Caco-2, 4 h): 10.0 Fold

CCOC(=O)CC1(CNC(=O)C(N)CCc2ccccc2)CCCCC1 (stereo not shown) [Embodiment 32, {1-[(2-Amino-4-phenyl-butyrylamino)-methyl]-cyclohexyl}-acetic acid ethyl ester]
Caco-2 Cell Mean Total Transmission rate 4 h (%) (human, Caco-2, 4 h): 1.76% | gbp-prodrug/gbp Transmission Fold (human, Caco-2, 4 h): 1.6 Fold

CCOC(=O)CC1(CNC(=O)C(N)C(C)CC)CCCCC1 (stereo not shown) [Embodiment 17, {1-[(2-Amino-3-methyl-pentanoylamino)-methyl]-cyclohexyl}-acetic acid ethyl ester]
Caco-2 Cell Mean Total Transmission rate 4 h (%) (human, Caco-2, 4 h): 9.47% | gbp-prodrug/gbp Transmission Fold (human, Caco-2, 4 h): 8.6 Fold

CCOC(=O)CC1(CNC(=O)C2CCC(CN)CC2)CCCCC1 (stereo not shown) [Embodiment 19, (1-{[(4-Aminomethyl-cyclohexanecarbonyl)-amino]-methyl}-cyclohexyl)-acetic acid ethyl ester]
Caco-2 Cell Mean Total Transmission rate 4 h (%) (human, Caco-2, 4 h): 11.14% | gbp-prodrug/gbp Transmission Fold (human, Caco-2, 4 h): 10.1 Fold

CCOC(=O)CC1(CNC(=O)c2cccnc2)CCCCC1 [Embodiment 27, (1-{[(Pyridine-3-carbonyl)-amino]-methyl}-cyclohexyl)-acetic acid ethyl ester]
Caco-2 Cell Mean Total Transmission rate 4 h (%) (human, Caco-2, 4 h): 9.39% | gbp-prodrug/gbp Transmission Fold (human, Caco-2, 4 h): 8.5 Fold

CC(C)(C)OC(=O)NC(Cc1ccccc1)C(=O)NCC1(CC(=O)O)CCCCC1 (stereo not shown) [Embodiment 15, {1-[(2-tert-Butoxycarbonylamino-3-phenyl-propionylamino)-methyl]-cyclohexyl}-acetic acid]
Caco-2 Cell Mean Total Transmission rate 4 h (%) [1]: 0.93% | gbp-prodrug/gbp Transmission Fold [2]: 0.8 Fold

CCOC(=O)CC1(CNC(=O)C(Cc2ccccc2)NC(=O)CC2(CN)CCCCC2)CCCCC1 (stereo not shown) [Embodiment 22, [1-({2-[2-(1-Aminomethyl-cyclohexyl)-acetylamino]-3-phenyl-propionylamino}-methyl)-cyclohexyl]-acetic acid ethyl ester]
Caco-2 Cell Mean Total Transmission rate 4 h (%) [1]: 9.26% | gbp-prodrug/gbp Transmission Fold [2]: 8.4 Fold

CCOC(=O)CC1(CNC(=O)C(N)CCSC)CCCCC1 (stereo not shown) [Embodiment 26, {1-[(2-Amino-4-methylsulfanyl-butyrylamino)-methyl]-cyclohexyl}-acetic acid ethyl ester]
Caco-2 Cell Mean Total Transmission rate 4 h (%) (human, Caco-2, 4 h): 9.02% | gbp-prodrug/gbp Transmission Fold (human, Caco-2, 4 h): 8.2 Fold

CCOC(=O)CC1(CNC(=O)C2(N)CCCCC2)CCCCC1 [Embodiment 9, (1-{[(1-Amino-cyclohexanecarbonyl)-amino]-methyl}-cyclohexyl)-acetic acid ethyl ester]
Caco-2 Cell Mean Total Transmission rate 4 h (%) (human, Caco-2, 4 h): 10.4% | gbp-prodrug/gbp Transmission Fold (human, Caco-2, 4 h): 9.5 Fold

CC(C)C[C@@H](NC(=O)OC(C)(C)C)C(=O)NCC1(CC(=O)O)CCCCC1 [Embodiment 1, {1-[(2R-tert-Butoxycarbonylamino-4-methyl-pentanoylamino)-methyl]-cyclohexyl}-acetic acid]
Caco-2 Cell Mean Total Transmission rate 4 h (%) [1]: 29% | gbp-prodrug/gbp Transmission Fold [2]: 26.4 Fold

CCOC(=O)CC1(CNC(=O)C(N)c2ccccc2)CCCCC1 (stereo not shown) [Embodiment 30, {1-[(2-Amino-2-phenyl-acetylamino)-methyl]-cyclohexyl}-acetic acid ethyl ester]
Caco-2 Cell Mean Total Transmission rate 4 h (%) (human, Caco-2, 4 h): 11.87% | gbp-prodrug/gbp Transmission Fold (human, Caco-2, 4 h): 10.8 Fold

CC(C)(C)OC(=O)NC(Cc1ccccc1)C(=O)NCC1(CC(=O)O)CCCCC1 (stereo not shown) [Embodiment 4, {1-[(2-tert-Butoxycarbonylamino-3-phenyl-propionylamino)-methyl]-cyclohexyl}-acetic acid]
Caco-2 Cell Mean Total Transmission rate 4 h (%) [1]: 10% | gbp-prodrug/gbp Transmission Fold [2]: 9.1 Fold

CCOC(=O)CC1(CNC(=O)C2CCNCC2)CCCCC1 [Embodiment 7, (1-{[(Piperidine-4-carbonyl)-amino]-methyl}-cyclohexyl)-acetic acid ethyl ester]
Caco-2 Cell Mean Total Transmission rate 4 h (%) (human, Caco-2, 4 h): 1% | gbp-prodrug/gbp Transmission Fold (human, Caco-2, 4 h): 0.9 Fold

CC(C)(C)OC(=O)NCC1(CC(=O)NCC2(CC(=O)O)CCCCC2)CCCCC1 [Embodiment 6, [1-({2-[1-(tert-Butoxycarbonylamino-methyl)-cyclohexyl]-acetylamino}-methyl)-cyclohexyl]-acetic acid]
Caco-2 Cell Mean Total Transmission rate 4 h (%) [1]: 27% | gbp-prodrug/gbp Transmission Fold [2]: 24.5 Fold

CCOC(=O)CC1(CNC(=O)C(N)c2ccc(O)cc2)CCCCC1 (stereo not shown) [Embodiment 35, (1-{[2-Amino-2-(4-hydroxy-phenyl)-acetylamino]-methyl}-cyclohexyl)-acetic acid ethyl ester]
Caco-2 Cell Mean Total Transmission rate 4 h (%) (human, Caco-2, 4 h): 10.33% | gbp-prodrug/gbp Transmission Fold (human, Caco-2, 4 h): 9.4 Fold

CCOC(=O)CC1(CNC(=O)C2CCC(=O)N2)CCCCC1 (stereo not shown) [Embodiment 25, (1-{[(5-Oxo-pyrrolidine-2-carbonyl)-amino]-methyl}-cyclohexyl)-acetic acid ethyl ester]
Caco-2 Cell Mean Total Transmission rate 4 h (%) (human, Caco-2, 4 h): 5.68% | gbp-prodrug/gbp Transmission Fold (human, Caco-2, 4 h): 5.2 Fold

CC(C)(C)OC(=O)NC(C(=O)NCC1(CC(=O)O)CCCCC1)c1ccccc1 (stereo not shown) [Embodiment 3, {1-[(2-tert-Butoxycarbonylamino-2-phenyl-acetylamino)-methyl]-cyclohexyl}-acetic acid]
Caco-2 Cell Mean Total Transmission rate 4 h (%) [1]: 3.1% | gbp-prodrug/gbp Transmission Fold [2]: 2.8 Fold

CCOC(=O)CC1(CNC(=O)C2CSCN2)CCCCC1 (stereo not shown) [Embodiment 34, (1-{[(Thiazolidine-4-carbonyl)-amino]-methyl}-cyclohexyl)-acetic acid ethyl ester]
Caco-2 Cell Mean Total Transmission rate 4 h (%) (human, Caco-2, 4 h): 4.50% | gbp-prodrug/gbp Transmission Fold (human, Caco-2, 4 h): 4.1 Fold

CCOC(=O)CC1(CNC(=O)C(N)c2cc3ccccc3[nH]2)CCCCC1 (stereo not shown) [Embodiment 33, (1-{[2-Amino-2-(1H-indol-2-yl)-acetylamino]-methyl}-cyclohexyl)-acetic acid ethyl ester]
Caco-2 Cell Mean Total Transmission rate 4 h (%) [1]: 9.97% | gbp-prodrug/gbp Transmission Fold [2]: 9.1 Fold

CSCCC(NC(=O)OC(C)(C)C)C(=O)NCC1(CC(=O)O)CCCCC1 (stereo not shown) [Embodiment 5, {1-[(2-tert-Butoxycarbonylamino-4-methylsulfanyl-butyrylamino)-methyl]-cyclohexyl}-acetic acid]
Caco-2 Cell Mean Total Transmission rate 4 h (%) [1]: 26% | gbp-prodrug/gbp Transmission Fold [2]: 23.6 Fold

CCOC(=O)CC1(CNC(=O)C(C)N)CCCCC1 (stereo not shown) [Embodiment 28, {1-[(2-Amino-propionylamino)-methyl]-cyclohexyl}-acetic acid ethyl ester]
Caco-2 Cell Mean Total Transmission rate 4 h (%) (human, Caco-2, 4 h): 8.11% | gbp-prodrug/gbp Transmission Fold (human, Caco-2, 4 h): 7.4 Fold

NCC1(CC(=O)N2CCCC2C(=O)NCC2(CC(=O)O)CCCCC2)CCCCC1 (stereo not shown) [Embodiment 23, {1-[({1-[2-(1-Aminomethyl-cyclohexyl)-acetyl]-pyrrolidine-2-carbonyl}-amino)-methyl]-cyclohexyl}-acetic acid]
Caco-2 Cell Mean Total Transmission rate 4 h (%) [1]: 10.73% | gbp-prodrug/gbp Transmission Fold [2]: 9.8 Fold

CCOC(=O)CC1(CNC(=O)C2CSCN2C(=O)OC(C)(C)C)CCCCC1 (stereo not shown) [Embodiment 37, 4-[(1-Ethoxycarbonylmethyl-cyclohexylmethyl)-carbamoyl]-thiazolidine-3-carboxylic acid tert-butyl ester]
Caco-2 Cell Mean Total Transmission rate 4 h (%) [1]: 6.13% | gbp-prodrug/gbp Transmission Fold [2]: 5.6 Fold
